We go through four compounds from patent publication EP4722201A1, “3-PHENYLISOXAZOLINE-5-CARBOXAMIDE COMPOUND, AND PREPARATION METHOD THEREFOR, HERBICIDAL COMPOSITION THEREOF AND USE THEREOF” (Jiangsu Flag Chemical Industry Co., Ltd, priority 2023, dated 2024).

Assay type in all cases: in vivo
One test has as its system Cyperus iria. Put plainly: Indoor herbicide activity determination, post-emergence (stem and leaf spray at 2-4 leaf stage). The conditions noted are these: 504 h, 60 g a.i./ha, determined 21 days later, read-out: Inhibition rate of fresh weight, Cyperus iria. In short, it runs like this: (§1)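 Potted weeds in sandy nutrient soil (pH 6.1, 1% organic matter) were grown in a constant-temperature illuminated room to the 2-4 leaf stage, then given a stem-and-leaf spray. Plants went back to the culture room once the spray had dried in shade. At 21 days, fresh weight inhibition % was calculated relative to untreated control plants.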

The next test concerns Digitaria sanguinalis. The test is described as above. The conditions noted are these: 504 h, 60 g a.i./ha, determined 21 days later, read-out: Inhibition rate of fresh weight, Digitaria sanguinalis. The method, boiled down: as §1
A further test relates to Eclipta prostrata. Described as above. The note with it: 504 h, 60 g a.i./ha, determined 21 days later, read-out: Inhibition rate of fresh weight, Eclipta prostrata. The method, boiled down:
as §1

The test system of a further test is Alopecurus japonicus. The test can be described thus: Indoor herbicide activity determination, Seed Treatment; pre-emergence (soil spray). The conditions noted are these: Dosage 240 g a.i./ha. The method, boiled down: (§2)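 Herbicide was applied to soil before weed emergence, 24 h after sowing, by tower spraying. Plants grew at constant temperature with illumination, and fresh weight compared with untreated pots gave % inhibition after 21 days.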

A further test deals with Alopecurus myosuroides. Described as above. The conditions noted are these: Dosage 240 g a.i./ha. The method, boiled down: as §2
Another test concerns Eleusine indica. The description is as above. The note with it: Dosage 240 g a.i./ha. The method, boiled down:
as §2

The next test deals with Leptochloa chinensis. Described as above. The conditions noted are these: Dosage 240 g a.i./ha. The method, boiled down: as §2
The subject of another test is Lolium multiflorum. The test is described as above. The conditions noted are these: Dosage 240 g a.i./ha. The method, boiled down: as §2

As to `COC(=O)[C@H]1C[C@@H](NC(=O)C2(C(F)(F)F)CC(c3cc(F)cc(C(F)(F)F)c3)=NO2)C1` (relative stereo) [I-243], the inhibition (as a rule, the change of the read-out against control, counted positive when it falls) at 60 g/ha in the test with Cyperus iria fell in the range of 80 to 100%; in the test on Digitaria sanguinalis it was 80 to 100%; with Eclipta prostrata, 60 to 80%. For the same compound, in the test with Alopecurus japonicus, the “Herbicidal activities, Alopecurus japonicus (inhibition rate class)” value was “A (A indicates that the inhibition rate was greater than or equal to 80% to 100%)”. For the same compound, the “Herbicidal activities, Alopecurus myosuroides (inhibition rate class)” value in the test on Alopecurus myosuroides is on record as “A (A indicates that the inhibition rate was greater than or equal to 80% to 100%)”. For the same compound, the “Herbicidal activities, Eleusine indica (inhibition rate class)” value in the test on Eleusine indica is given as “A (A indicates that the inhibition rate was greater than or equal to 80% to 100%)”. The “Herbicidal activities, Leptochloa chinensis (inhibition rate class)” value in the test on Leptochloa chinensis is recorded as “A (A indicates that the inhibition rate was greater than or equal to 80% to 100%)”. For the same compound, in the test on Lolium multiflorum, the “Herbicidal activities, Lolium multiflorum (inhibition rate class)” value was “A (A indicates that the inhibition rate was greater than or equal to 80% to 100%)”.

In the case of `O=C(N[C@H]1C[C@@H](C(=O)O)C1)C1(C(F)(F)F)CC(c2cc(Cl)cc(C(F)(F)F)c2)=NO1` (relative stereo) [I-245], the inhibition at 60 g/ha was 80 to 100% with Cyperus iria, 80 to 100% with Digitaria sanguinalis and 60 to 80% with Eclipta prostrata. In addition, the “Herbicidal activities, Alopecurus japonicus (inhibition rate class)” value in the test on Alopecurus japonicus is listed as “A (A indicates that the inhibition rate was greater than or equal to 80% to 100%)”. Also, the “Herbicidal activities, Alopecurus myosuroides (inhibition rate class)” value in the test with Alopecurus myosuroides is “A (A indicates that the inhibition rate was greater than or equal to 80% to 100%)”. The “Herbicidal activities, Eleusine indica (inhibition rate class)” value in the test with Eleusine indica is listed as “A (A indicates that the inhibition rate was greater than or equal to 80% to 100%)”. In the test with Leptochloa chinensis, the “Herbicidal activities, Leptochloa chinensis (inhibition rate class)” value is listed as “A (A indicates that the inhibition rate was greater than or equal to 80% to 100%)”. Besides, in the test with Lolium multiflorum, the “Herbicidal activities, Lolium multiflorum (inhibition rate class)” value is listed as “A (A indicates that the inhibition rate was greater than or equal to 80% to 100%)”.

On to `O=C(N[C@H]1C[C@@H](C(=O)O)C1)C1(C(F)(F)F)CC(c2cc(F)cc(OC(F)(F)F)c2)=NO1` (relative stereo) [I-249], for which the inhibition at 60 g/ha in the test with Cyperus iria fell in the range of 80 to 100%; in the test with Digitaria sanguinalis, 80 to 100%; in the test with Eclipta prostrata, 60 to 80%. Moreover, the “Herbicidal activities, Alopecurus japonicus (inhibition rate class)” value with Alopecurus japonicus was “A (A indicates that the inhibition rate was greater than or equal to 80% to 100%)”. In the test on Alopecurus myosuroides, the “Herbicidal activities, Alopecurus myosuroides (inhibition rate class)” value is recorded as “A (A indicates that the inhibition rate was greater than or equal to 80% to 100%)”. For the same compound, in the test with Eleusine indica, the “Herbicidal activities, Eleusine indica (inhibition rate class)” value is reported as “A (A indicates that the inhibition rate was greater than or equal to 80% to 100%)”. In addition, the “Herbicidal activities, Leptochloa chinensis (inhibition rate class)” value in the test with Leptochloa chinensis was “A (A indicates that the inhibition rate was greater than or equal to 80% to 100%)”. Besides, in the test on Lolium multiflorum, the “Herbicidal activities, Lolium multiflorum (inhibition rate class)” value is “A (A indicates that the inhibition rate was greater than or equal to 80% to 100%)”.

In the case of `COC(=O)[C@H]1C[C@@H](NC(=O)C2(C(F)(F)F)CC(c3cc(F)cc(OC(F)(F)F)c3)=NO2)C1` (relative stereo) [I-251], the results for the inhibition at 60 g/ha in the test with Cyperus iria, in the test on Digitaria sanguinalis and in the test with Eclipta prostrata were 80 to 100%, 80 to 100% and 60 to 80%, respectively. Also, the “Herbicidal activities, Alopecurus japonicus (inhibition rate class)” value with Alopecurus japonicus is listed as “A (A indicates that the inhibition rate was greater than or equal to 80% to 100%)”. The “Herbicidal activities, Alopecurus myosuroides (inhibition rate class)” value with Alopecurus myosuroides is “A (A indicates that the inhibition rate was greater than or equal to 80% to 100%)”. Moreover, the “Herbicidal activities, Eleusine indica (inhibition rate class)” value in the test on Eleusine indica was “A (A indicates that the inhibition rate was greater than or equal to 80% to 100%)”. In the test on Leptochloa chinensis, the “Herbicidal activities, Leptochloa chinensis (inhibition rate class)” value is reported as “A (A indicates that the inhibition rate was greater than or equal to 80% to 100%)”. The “Herbicidal activities, Lolium multiflorum (inhibition rate class)” value in the test on Lolium multiflorum is recorded as “A (A indicates that the inhibition rate was greater than or equal to 80% to 100%)”.
